Data: patent US20220154204A1, “ENHANCING DROUGHT, SALINITY AND COLD TOLERANCE IN PLANTS AND TREES” (The Regents of the University of California, priority 2019, published 2022)

Experiments:
[1] = system: OST1/SnRK2.6; test: In vivo Ser-171 phosphorylation of OST1/SnRK2.6-GFP in mesophyll cell protoplasts by LC-MS/MS; assay type: cell-based, Arabidopsis; details: 20 μM ABA for 15 min vs control
Experimental: 30 μg GST-OST1/SnRK2.6(D140A) and 2.5 μg GST-M3Kδ1 kinase domain were incubated in phosphorylation buffer (50 mM Tris-HCl pH 7.5, 10 mM MgCl2, 0.1% Triton X-100, and 1 mM DTT) with 1 mM ATP for 2 hr at room temperature. Proteins were precipitated by acetone precipitation and dissolved in SDS-PAGE loading buffer. After SDS-PAGE and CBB staining, protein bands of GST-OST1/SnRK2.6(D140A) were excised and analyzed by LC-MS/MS^17. For in vivo Ser-171 phosphorylation, OST1/SnRK2.6-GFP was transiently expressed in Arabidopsis mesophyll cell protoplasts. The protoplasts were incubated with or without 20 μM ABA for 15 min, and OST1/SnRK2.6 proteins were purified by immunoprecipitation using anti-GFP antibodies. After SDS-PAGE and CBB staining, OST1/SnRK2.6-GFP bands were excised and analyzed by LC-MS/MS^17
a, The sequence of identified phosphorylated peptide by mass spectrometry. OST1/SnRK2.6-GFP was expressed in Arabidopsis mesophyll cell protoplasts and purified by immunoprecipitation with GFP antibodies before or after 20 μM ABA treatment for 15 min. S(+79.97) indicates phosphorylated serine residues. Values (Control and ABA) indicate normalized peak areas for phosphorylated peptides. The phosphorylated peptide was not detected in the control sample.

[2] = system: S-type anion channels; test: Patch-clamp analyses of S-type anion channel currents in guard cell protoplasts; assay type: cell-based, Arabidopsis; details: 10 μM, guard cells of wildtype (Col-0) and HsMYO control line
Experimental: Guard cell protoplasts from 4 to 6 week-old Arabidopsis plants were prepared^24,33 ABA-activated S-type anion channel current recordings were carried out by using an Axon 200A amplifier (Axon instruments) and a Digidata 1440A low-noise data acquisition system. Epidermal tissues were isolated from one or two rosette leaves and collected using a nylon mesh (100-μm pore size). […]
S-type anion currents in guard cell protoplasts were recorded using the whole-cell patch-clamp technique^24,33. […]
a, Leaves from m3k amiRNAi and the control amiRNA-HsMYO line (expressing an amiRNA targeting human myosin 2), which has no target gene in Arabidopsis plants were analyzed in time-resolved stomatal conductance analyses in which 1 μM ABA was added to the transpiration stream via the petiole (as described in e.g., Ceciliato, P. et al. Plant Methods 15, doi:10.1186/s13007-019-0423-y (2019)) as indicted by the red arrowhead (n=3 leaves from 3 independent plants per genotype, +/−s.d.). b, Normalized relative stomatal conductance to the first data point shown in (a). c-h, ABA-activated S-type anion channel currents were investigated by patch-clamp analyses using guard cell protoplasts from the wildtype parent Col-0 (c, d), the HsMYO amiRNA control line (e, f), and the m3k amiRNA line (g, h). […]

[3] = system: SLAC1; test: Two-electrode voltage clamp recordings of SLAC1 currents in Xenopus oocytes; assay type: cell-based, Arabidopsis; details: Xenopus oocytes co-injected with PYL9/RCAR1, ABI1, OST1/SnRK2.6, SLAC1 with or without M3Ks, 50 μM ABA
Excerpt: The PCR amplified cDNA fragments of OST1, SLAC1, PYL9/RCAR1, ABI1, M3Kδ1, M3Kδ6 and M3Kδ7 were cloned into the oocyte expression vector pNB1 by using an advanced uracil-excision based cloning strategy as previously described^60. The mutant isoforms OST1-S171A, M3Kδ6-K775W and M3Kδ7-K740W were generated using the Quikchange Site-Directed Mutagenesis kit (Agilent Technologies). Linearized plasmids were used to generate cRNAs via the mMESSAGE mMACHINE® T7 kit (Thermo Fisher Scientific, Catalog number: AM1344). […] Steady state currents were recorded with 3 second voltage pulses ranging from +40 mV to −120 mV in −20 mV decrements, followed by a “tail” voltage of −120 mV and the holding potential was kept at 0 mV.
SLAC1-mediated currents in oocytes vary showing either time-dependent relaxation or more instantaneous currents when using a chloride bath solution^61,62. […] To avoid time-of-measurement and inter-batch dependence in the data, H2O-injected control and other indicated controls were included in each batch of oocytes and control experiments were recorded intermittently with the investigated conditions.
a and b, In vitro reconstitution of ABA-induced OST1/SnRK2 activation without M3Kδ6 (a) or with M3Kδ6 (b). […] Phosphorylation of AKS1 is detected by binding of 14-3-3Phi (At1g35160) to the phosphorylated AKS1 protein^15. […]

[4] = biological target: T1, OST1/SnRK2.6 (Arabidopsis thaliana, UniProt Q940H6); test: In vitro phosphorylation assay of CIAP-dephosphorylated GST-OST1/SnRK2.6 with other protein kinases; assay type: biochemical; details: GST-OST1/SnRK2.6 dephosphorylated by CIAP, [γ-32P]-ATP
T1 construct: made in house; host or cells: E. coli
T1 sequence (Q940H6 1-362): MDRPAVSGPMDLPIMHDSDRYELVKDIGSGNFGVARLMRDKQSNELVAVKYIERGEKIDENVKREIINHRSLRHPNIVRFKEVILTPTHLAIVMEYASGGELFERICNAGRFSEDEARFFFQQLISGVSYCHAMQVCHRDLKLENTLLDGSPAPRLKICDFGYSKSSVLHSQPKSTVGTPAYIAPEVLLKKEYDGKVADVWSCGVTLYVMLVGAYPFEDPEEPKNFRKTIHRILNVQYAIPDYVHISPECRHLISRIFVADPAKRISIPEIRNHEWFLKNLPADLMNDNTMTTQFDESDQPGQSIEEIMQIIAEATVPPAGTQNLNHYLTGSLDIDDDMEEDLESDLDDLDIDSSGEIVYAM
Experimental: We investigated phosphorylation of purified recombinant GST-tagged OST1/SnRK2.6 protein kinase after dephosphorylation in vitro. To test whether OST1/SnRK2.6 could be re-activated by autophosphorylation, after dephosphorylation, the GST-OST1/SnRK2.6 protein bound on glutathione sepharose 4B resin was incubated with calf intestinal alkaline phosphatase (CIAP), and [γ-^32P]-ATP was added to the reaction after wash out of CIAP. […] Therefore, another unknown protein kinase may be required for reversible ABA signal transduction.
10 μg GST-OST1/SnRK2.6 proteins were bound to glutathione sepharose 4B beads and incubated with 30 U CIAP for 2 hr at room temperature. […]
a, Seeds of amiR-HsMYO wild-type (control line) or amiR-ax1117 mutant were sowed on ½ MS medium containing 2 μM ABA, or 0.02% EtOH as control, for germination assays. Representative images showing seed germination after 6 days. b, The percentage of seedlings showing green cotyledons was analyzed. […] In-gel kinase assays were performed using histone type III-S as a substrate. e, SnRK2 band intensities as shown in (d) were measured using ImageJ, n=3 experiments, error bars show +/−s.e.m. f, Recombinant GST-OST1/SnRK2.6 protein was dephosphorylated by alkaline phosphatase in vitro and used for in vitro phosphorylation assays after incubation with CPK6, CPK23 or MPK12 protein kinases. […]

Row | phosphorylation of OST1/SnRK2.6 after dephosphorylation [4] | Compound | phosphorylation of OST1 Ser171 in mesophyll cells [1] | activation of S-type anion currents in guard cells [2] | ABA-dependent SLAC1 anion channel activation [3]
1 | – | CC1=CC(=O)CC(C)(C)[C@@]1(O)/C=C/C(C)=C\C(=O)O [ABA, abscisic acid] | clearly phosphorylated | typical ABA activation of S-type anion currents | could activate SLAC1 in oocytes only in the presence of low concentrations of either M3Kδ1, M3Kδ6 or M3Kδ7 mRNAs
2 | did not phosphorylate | CPK23: calcium-dependent protein kinase of ABA signalling | – | – | –
